Measurements as given in article PMC10812672, “Short Antimicrobial Peptide Derived from the Venom Gland Transcriptome of Pamphobeteus verdolaga Increases Gentamicin Susceptibility of Multidrug-Resistant Klebsiella pneumoniae” (Antibiotics, 2023).
Ends that are not written are not given here.

System: human peripheral blood mononuclear cells (hPBMCs)
Experiment: Cytotoxicity, MTT
Format: cell-based
Description: The cytotoxicity of PvAMP66 was assessed in vitro against human red blood cells (hRBCs) and human peripheral blood mononuclear cells (hPBMCs) using concentrations of 1.56–200 µM. At the highest concentration, PvAMP66 induced 60% hemolysis in human erythrocytes (Figure 3a), and a decrease in viability of approximately 40% in the hPBMCs (Figure 3b). […] Ratios between CC50 or HC50, and the IC50 values registered for the bacterial strains, indicate that PvAMP66 has higher selectivity for interacting with prokaryotic membranes (Table 4).
Ten milliliters of fresh blood was mixed with 10 mL of PBS pH 7.20 in 50 mL conical tubes. Then, 10 mL of Ficoll® density gradient media were placed in 50 mL conical tubes, and then the blood/PBS solution was gently poured over without disturbing the interface. The mixture was centrifuged at RT and 400× g for 30 min with the brake off (Universal 32 R, Hettich Group, Kirchlengern, Westphalia, Germany), and the upper plasma phase was removed and discarded. The leukocyte phase was gently removed from the conical tube, placed in a new 50 mL conical tube, and density gradient media was removed in two washings with 25 mL of PBS pH 7.20 at RT and 400× g for 10 min. Cells were then resuspended in 3 mL of RPMI media. Subsequently, 10 µL of this suspension was mixed with 90 µL of Trypan blue in a 0.50 mL polypropylene vial. The cell count and cell viability were determined in a Neubauer counting chamber. Then, cells were suspended to 3 × 10^5 cells/mL, ensuring that cell viability remained above 98%. All peptides were diluted in RPMI media to final concentrations ranging between 1.56 and 200 µM. Subsequently, 20 µL of each peptide solution was added in triplicate into 96-well plates, along with 80 µL of fresh RPMI media. For negative and positive cytotoxicity controls, six wells received 20 µL of PBS and 30% v/v H2O2, respectively. Blank wells without cells were also included. Next, 100 µL of a cell suspension 3 × 10^5 cells/mL was added to each well, and the plates were incubated for 24 h at 37 °C in a 5% CO2 atmosphere (Heratherm, ThermoFisher Scientific, Waltham, MA, USA). After 24 h, plates were centrifuged at RT and 1000× g for 10 min (Sorvall Legend XFR, ThermoFisher Scientific, Waltham, MA, USA). Then, 180 µL of the supernatant was collected, and 28 µL of a 4 mg/mL sterile MTT solution was added. The plates were then incubated for 4 h at 37 °C in a 5% CO2 atmosphere (Heratherm, ThermoFisher Scientific, Waltham, MA, USA). After the second incubation, 130 µL of DMSO was added to each well and plates were agitated at 50 rpm. The solubilized formazan was then measured at 570 nm using a Multiskan SkyHigh spectrophotometer (ThermoFisher Scientific, Waltham, MA, USA). All peptides were evaluated in three independent assays and the viability percentages were calculated as follows: Viability %=1−AbsPEPTIDE−Median AbsBLANK/Median AbsH2O2−Median AbsBLANK×100

With WKKIKKFF-NH2 [PvAMP66] the “CC50 (Cytotoxic Concentration 50)” value (hPBMCs in RPMI, 24 h 37 °C 5% CO2, MTT 570 nm, 1.56–200 µM, logistic regression, 95% CI in parentheses, ND = above evaluated range) was 172.03 µM, the decrease in viability (hPBMCs, highest concentration (200 µM), 24 h, MTT) was “approximately 40%” and the CC50/IC50 (selectivity index vs IC50 E. coli ATCC 25922) was 4.49. For the same substance, the CC50/IC50 (selectivity index vs IC50 K. pneumoniae ATCC BAA-1705) was 3.78, the CC50/IC50 (selectivity index vs IC50 MDR K. pneumoniae) was 10.89 and the CC50/IC50 (selectivity index vs IC50 P. aeruginosa ATCC 9027) was 13.58. For the same substance, the CC50/IC50 (selectivity index vs IC50 S. aureus ATCC 29213) was 6.24.
